Test: Swelling of clay in water: viscosity and gel strength of sodium bentonite dispersion
Details: in words
Procedure: Additional tests were conducted to determine the utility of the metal complexes of the invention on the swelling of clay in water. 6 grams of the product were dissolved in 300 ml. of distilled water, and the pH of the solution was adjusted to 10.5 with sodium hydroxide. 30 grams of sodium bentonite were then added and the mixture was bottled and rolled 16 hours at 70°C. Viscosity and gel strengths were then determined using a Fann model 35 viscometer. Lowered viscosity and gels indicate decreased swelling and viscosity building.

aluminum
inhibiting the swelling of bentonite clays: most effective
